Here are results for three compounds from publication PMC9019507, “OAT10/SLC22A13 Acts as a Renal Urate Re-Absorber: Clinico-Genetic and Functional Analyses With Pharmacological Impacts” (Frontiers in Pharmacology, 2022).

The target of assay [1] is T1, URAT1/SLC22A12 (Homo sapiens, UniProt Q96S37).
T1 construct: full-length human URAT1 wild-type, EGFP-fused (pEGFP-C1)
T1 sequence (Q96S37 1-553): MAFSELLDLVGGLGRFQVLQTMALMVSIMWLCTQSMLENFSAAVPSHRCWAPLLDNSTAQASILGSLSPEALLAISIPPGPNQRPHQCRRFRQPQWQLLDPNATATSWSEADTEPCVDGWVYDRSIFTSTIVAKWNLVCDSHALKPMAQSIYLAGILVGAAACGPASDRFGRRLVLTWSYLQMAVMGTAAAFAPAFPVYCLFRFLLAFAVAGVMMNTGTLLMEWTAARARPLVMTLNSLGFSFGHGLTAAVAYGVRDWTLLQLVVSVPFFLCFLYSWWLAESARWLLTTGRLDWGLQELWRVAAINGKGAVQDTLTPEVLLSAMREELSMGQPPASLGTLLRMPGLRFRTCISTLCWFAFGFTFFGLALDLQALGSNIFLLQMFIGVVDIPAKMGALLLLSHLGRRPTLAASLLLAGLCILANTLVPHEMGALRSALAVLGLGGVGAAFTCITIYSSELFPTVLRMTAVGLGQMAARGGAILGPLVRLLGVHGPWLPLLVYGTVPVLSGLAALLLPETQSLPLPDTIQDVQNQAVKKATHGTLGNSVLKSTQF
In words: inhibition of [[…]-14C]-urate uptake in URAT1-expressing […] cells. Format: cell-based.

Assay [2] deals with T2, OAT10/SLC22A13 (Homo sapiens, UniProt Q9Y226). In words: inhibition of [[…]-14C]-urate uptake in OAT10-expressing […] cells. Format: cell-based.
T2 sequence (Q9Y226 whole entry): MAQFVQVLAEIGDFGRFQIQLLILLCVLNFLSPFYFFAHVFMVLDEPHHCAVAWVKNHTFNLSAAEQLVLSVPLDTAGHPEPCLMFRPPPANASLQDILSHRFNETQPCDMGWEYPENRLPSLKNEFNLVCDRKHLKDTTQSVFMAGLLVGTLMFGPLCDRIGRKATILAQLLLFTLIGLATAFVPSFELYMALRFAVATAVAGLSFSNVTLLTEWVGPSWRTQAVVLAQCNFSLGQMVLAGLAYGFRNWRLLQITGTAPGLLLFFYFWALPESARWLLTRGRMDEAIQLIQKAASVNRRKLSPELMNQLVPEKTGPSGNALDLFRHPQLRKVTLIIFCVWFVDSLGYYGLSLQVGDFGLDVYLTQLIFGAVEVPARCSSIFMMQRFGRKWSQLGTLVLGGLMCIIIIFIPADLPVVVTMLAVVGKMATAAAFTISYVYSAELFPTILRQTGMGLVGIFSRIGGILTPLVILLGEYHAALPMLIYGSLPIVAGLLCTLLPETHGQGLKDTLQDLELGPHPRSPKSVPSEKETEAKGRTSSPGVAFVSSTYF
Assay [3] has as its target T1, URAT1/SLC22A12. In words: inhibition of [[…]-14C]-urate uptake in URAT1-expressing […] cells ([…]). Format: cell-based.
For assay [4], the target named is T2, OAT10/SLC22A13. Briefly: cell-based. On the set-up: full-length human OAT10 wild-type, EGFP-fused (pEGFP-N1); species or system 293A. As to the method: Calculation of the Half-Maximal Inhibitory Concentration Values  FIGURE 5 Effects of urate-lowering drugs and their reactive metabolites on the urate transport activity of OAT10. (A) OAT10-mediated urate transport activities in the presence or absence of urate-lowering drugs, including their reactive metabolites, at 100 μM or experimentally maximum concentrations (Table 2). AP, allopurinol; OP, oxypurinol; FEB, febuxostat; TOP, topiroxostat; BBR, benzbromarone; 6-OH BBR, 6-hydroxybenzbromarone; DU, dotinurad; LU, lesinurad; PB, probenecid; FF, fenofibrate; LOS, losartan. (B) Comparison of the effects of each compound (10 μM) on the urate transport activities of URAT1 and OAT10. Values are shown as % of vehicle control (only 0.1% dimethyl sulfoxide); data are expressed as the mean ± SD; n = 3–4 (A,B). ^†† p < 0.01 (two-sided t-test). […] The urate transport activities were measured in the presence of each compound at indicated concentrations for 1 min.

In assay [5] the target is T1, URAT1/SLC22A12. Briefly: cell-based. On the set-up: species or system 293A; inhibition of [8-14C]-urate uptake by URAT1-expressing 293A cells, concentration-response.
Protocol: Transiently URAT1-expressing 293A cells were subjected to a cell-based urate transport assay, 48 h after transfection. As a transport buffer, Ringer solution, which contains Cl−, or Cl−-free Hanks’ Balanced Salt Solution (HBSS) containing 10 μM [8-14C]-urate was used. […] Data are expressed as the mean ± SD; n = 4.
In assay [6] the target is T2, OAT10/SLC22A13. In words: concentration-dependent inhibition of [[…]-14C]-urate uptake in OAT10-expressing […] cells. Format: cell-based.

By IC50 is commonly meant the point on the concentration scale where inhibition reaches its midpoint. A lower IC50 goes with higher potency. As to `CCCCc1nc(Cl)c(CO)n1Cc1ccc(-c2ccccc2-c2nn[nH]n2)cc1` [LOS, losartan], the IC50 in assay [1] is 11.9 µM; in assay [2], 2.5 µM.
In the case of `O=C(c1cc(Cl)c(O)c(Cl)c1)N1CS(=O)(=O)c2ccccc21` [DU, dotinurad], the “inhibition of [8-14C]-urate uptake in URAT1-expressing 293A cells (10 μM)” value in assay [3] is “benzbromarone, 6-hydroxybenzbromarone, and dotinurad were more specific to URAT1 than OAT10”. In addition, the concentration for half-maximal inhibition (IC50) came out at 7.7 µM in assay [4] and 0.043 µM in assay [5].
Turning to `O=C(O)CSc1nnc(Br)n1-c1ccc(C2CC2)c2ccccc12` [LU, lesinurad], the “inhibition of [8-14C]-urate uptake in URAT1-expressing 293A cells (10 μM)” value in assay [3] was “lesinurad inhibited OAT10 and URAT1 comparably”. Further, the IC50 result in assay [6] was “lesinurad inhibited OAT10 and URAT1 comparably”.
